Laboratory results from US20230407243A1, “GENETIC PLATFORM TO INVESTIGATE THE FUNCTIONS OF BACTERIAL DRUG EFFLUX PUMPS” (priority 2022, published 2023).
Where two headings read alike, the source gives them in different places.

Tests used:
Assay type in all cases: cell-based, Escherichia coli
EKO-35 acrBD408A = system: EKO-35 acrBD408A
Summary of the method: (§1)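 Interaction of PAβN or NMP with antibiotics is scored as FICI = CA/MICA + CB/MICB, from MICs (no growth, OD600) in MHB II checkerboard microdilution following CLSI. Solvent controls accompany every plate.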

EKO-35 = system: EKO-35
Summary of the method: as §1

ΔtolC-Pore = system: ΔtolC-Pore
Summary of the method: as §1

ΔtolC = system: ΔtolC
Summary of the method: as §1

[1] = system: EKO-35 porinated strain expressing acrB; assay: Checkerboard synergy (FICI), porinated strain
Experimental: (§2) Synergy measurement using checkerboard analysis was performed in 96-well microtiter plates using the microdilution broth method, according to CLSI guidelines (Patel J. B., 2015). The cell inocula were prepared using the colony resuspension method. The minimum inhibitory concentrations (MICs) were defined as the lowest concentration that provided no growth, as determined by measurement of the OD600nm using a Synergy H1 microplate reader (BioTek). Susceptibility testing was performed in MHB II with a final volume of 100 μL. PAI3N (Bachem Americas) was solubilized in MHB II. […] Solvent controls were included in each plate.
(§3) The Fractional Inhibitory Concentration Index (FICI) was used to assess the synergy of PAI3N in combination with different antibiotics. The FICI represents the ΣFIC of each drug. The FICI for each drug was calculated using the following formula: FICI=FICA+FICB=(CA/MICA)+(CB/MICB). Where MICA and MICB are the MICs of drugs A (PAI3N/NMP) and B (antibiotic) alone, and CA and CB are the MICs of the drugs in combination. The effects of PAβN or NMP in combination with antibiotics were classified as: synergistic (FICI<0.5), additive (FICI>0.5-1.0), indifferent (FICI>1.0-2.0), and antagonistic (FICI>2.0). Fold increases in resistance provided by efflux pumps were calculated by dividing the MIC values of strains expressing efflux pumps by the MIC value of EKO-35.

[2] = system: EKO-35-Pore acrBD408A (functionally inactive AcrB variant); assay: Checkerboard synergy (FICI), porinated strain
Experimental: as §2, §3

EKO-35-Pore = assay: Checkerboard synergy (FICI), porinated strain
Experimental: as §2, §3

wild-type K-12-Pore = assay: Checkerboard synergy (FICI), porinated strain
Experimental: as §2, §3

[3] = EKO-35 acrBD408A, NMP + antibiotic
[4] = EKO-35 acrBD408A, PAβN + antibiotic
[5] = strain EKO-35 acrBD408A, NMP + antibiotic
[6] = strain EKO-35, NMP + antibiotic
[7] = strain ΔtolC Pore, NMP + antibiotic
[8] = EKO-35 acrB Pore, NMP + antibiotic
[9] = EKO-35 acrB Pore, PAβN + antibiotic
[10] = strain EKO-35 acrB Pore, NMP + antibiotic
[11] = EKO-35 acrBD408A Pore, NMP + antibiotic
[12] = EKO-35 acrBD408A Pore, PAβN + antibiotic
[13] = strain EKO-35 acrBD408A Pore, NMP + antibiotic
[14] = strain EKO-35 Pore, NMP + antibiotic
[15] = strain K-12 Pore, NMP + antibiotic

In the case of `CC(=O)O[C@H]1C[C@@]2(C)[C@@H](C[C@@H](O)[C@H]3[C@@]4(C)CC[C@@H](O)[C@@H](C)[C@@H]4CC[C@@]32C)/C1=C(\CCC=C(C)C)C(=O)O` [fusidic acid], the Effect (EKO-35 acrBD408A; [3]) was “Synergistic”, the FICI (EKO-35 acrBD408A; [3]) was 0.500 and the Effect (EKO-35 acrBD408A; [4]) was “Synergistic”. For the same compound, the FICI (EKO-35 acrBD408A; [4]) was 0.250, the “MICb Alone” value (EKO-35 acrBD408A; EKO-35 acrBD408A, antibiotic alone (PAβN checkerboard)) was 4 µg/mL and the “MICb Combined” value (EKO-35 acrBD408A; EKO-35 acrBD408A, antibiotic in combination with PAβN) was 0.5 µg/mL. The Effect (EKO-35 acrBD408A; [5]) was “Synergistic (Synergy (FICI ≤0.5))”, the FICI (EKO-35 acrBD408A; [5]) was 0.500 and the “MICb Alone” value (EKO-35 acrBD408A; strain EKO-35 acrBD408A, antibiotic alone) was 4 µg/mL. For the same compound, the “MICb Combined” value (EKO-35 acrBD408A; strain EKO-35 acrBD408A, antibiotic in combination with NMP) was 1 µg/mL, the Effect (EKO-35; EKO-35, NMP + antibiotic) was “Additive” and the FICI (EKO-35; EKO-35, NMP + antibiotic) was 0.625. For the same compound, the Effect (EKO-35; EKO-35, PAβN + antibiotic) was “Synergistic”, the FICI (EKO-35; EKO-35, PAβN + antibiotic) was 0.158 and the “MICb Alone” value (EKO-35; EKO-35, antibiotic alone (PAβN checkerboard)) was 4 µg/mL. The “MICb Combined” value (EKO-35; EKO-35, antibiotic in combination with PAβN) was 0.13 µg/mL, the “interaction of PAβN in combination with the labelled antibiotic (FICI)” value (EKO-35; efflux-deficient strains EKO-35, EKO-35 acrBD408A, ΔtolC) was “synergized” and the Effect (EKO-35; [6]) was “Additive (additive (FICI >0.5-1.0))”. For the same compound, the FICI (EKO-35; [6]) was 0.625, the “MICb Alone” value (EKO-35; strain EKO-35, antibiotic alone) was 4 µg/mL and the “MICb Combined” value (EKO-35; strain EKO-35, antibiotic in combination with NMP) was 0.5 µg/mL. For the same compound, the Effect (ΔtolC-Pore; [7]) was “Additive (additive (FICI >0.5-1.0))”, the FICI (ΔtolC-Pore; [7]) was 0.750 and the “MICb Alone” value (ΔtolC-Pore; strain ΔtolC Pore, antibiotic alone) was 2 µg/mL. For the same compound, the “MICb Combined” value (ΔtolC-Pore; strain ΔtolC Pore, antibiotic in combination with NMP) was 1 µg/mL, the Effect (ΔtolC-Pore; ΔtolC Pore, NMP + antibiotic) was “Additive” and the FICI (ΔtolC-Pore; ΔtolC Pore, NMP + antibiotic) was 0.750. For the same compound, the Effect (ΔtolC-Pore; ΔtolC Pore, PAβN + antibiotic) was “Synergistic”, the FICI (ΔtolC-Pore; ΔtolC Pore, PAβN + antibiotic) was 0.375 and the “MICb Alone” value (ΔtolC-Pore; ΔtolC Pore, antibiotic alone (PAβN checkerboard)) was 2 µg/mL. For the same compound, the “MICb Combined” value (ΔtolC-Pore; ΔtolC Pore, antibiotic in combination with PAβN) was 0.25 µg/mL, the Effect (ΔtolC; strain ΔtolC, NMP + antibiotic) was “Additive (additive (FICI >0.5-1.0))” and the FICI (ΔtolC; strain ΔtolC, NMP + antibiotic) was 0.625. For the same compound, the “MICb Alone” value (ΔtolC; strain ΔtolC, antibiotic alone) was 4 µg/mL, the “MICb Combined” value (ΔtolC; strain ΔtolC, antibiotic in combination with NMP) was 0.5 µg/mL and the Effect (ΔtolC; ΔtolC, NMP + antibiotic) was “Additive”. The FICI (ΔtolC; ΔtolC, NMP + antibiotic) was 0.625, the Effect (ΔtolC; ΔtolC, PAβN + antibiotic) was “Synergistic” and the FICI (ΔtolC; ΔtolC, PAβN + antibiotic) was 0.375. For the same compound, the “MICb Alone” value (ΔtolC; ΔtolC, antibiotic alone (PAβN checkerboard)) was 2 µg/mL, the “MICb Combined” value (ΔtolC; ΔtolC, antibiotic in combination with PAβN) was 0.25 µg/mL and the Effect [1, 8] was “Synergistic”. For the same compound, the FICI [1, 8] was 0.500, the Effect [1, 9] was “Synergistic” and the FICI [1, 9] was 0.129. For the same compound, the “MICb Alone” value ([1]; EKO-35 acrB Pore, antibiotic alone (PAβN checkerboard)) was 512 µg/mL, the “MICb Combined” value ([1]; EKO-35 acrB Pore, antibiotic in combination with PAβN) was 2 µg/mL and the “potentiation of the labelled compound by NMP” value ([1]; porinated strain producing AcrB) was “enhancing the activity”. For the same compound, the Effect [1, 10] was “Synergistic (Synergy (FICI ≤0.5))”, the FICI [1, 10] was 0.500 and the “MICb Alone” value ([1]; strain EKO-35 acrB Pore, antibiotic alone) was 512 µg/mL. For the same compound, the Effect [2, 11] was “Additive”, the FICI [2, 11] was 0.750 and the Effect [2, 12] was “Synergistic”. The FICI [2, 12] was 0.255, the “MICb Alone” value ([2]; EKO-35 acrBD408A Pore, antibiotic alone (PAβN checkerboard)) was 1 µg/mL and the “MICb Combined” value ([2]; EKO-35 acrBD408A Pore, antibiotic in combination with PAβN) was 0.13 µg/mL. For the same compound, the Effect [2, 13] was “Additive (additive (FICI >0.5-1.0))”, the FICI [2, 13] was 0.750 and the “MICb Alone” value ([2]; strain EKO-35 acrBD408A Pore, antibiotic alone) was 0.5 µg/mL. For the same compound, the “MICb Combined” value ([2]; strain EKO-35 acrBD408A Pore, antibiotic in combination with NMP) was 0.25 µg/mL, the Effect (EKO-35-Pore; EKO-35 Pore, NMP + antibiotic) was “Additive” and the FICI (EKO-35-Pore; EKO-35 Pore, NMP + antibiotic) was 0.620. For the same compound, the Effect (EKO-35-Pore; EKO-35 Pore, PAβN + antibiotic) was “Synergistic”, the FICI (EKO-35-Pore; EKO-35 Pore, PAβN + antibiotic) was 0.310 and the “MICb Alone” value (EKO-35-Pore; EKO-35 Pore, antibiotic alone (PAβN checkerboard)) was 1 µg/mL. The “MICb Combined” value (EKO-35-Pore; EKO-35 Pore, antibiotic in combination with PAβN) was 0.06 µg/mL, the “interaction of PAβN in combination with the labelled antibiotic (FICI)” value (EKO-35-Pore; porinated efflux-deficient strains) was “synergy was maintained” and the Effect (EKO-35-Pore; [14]) was “Additive (additive (FICI >0.5-1.0))”. The FICI (EKO-35-Pore; [14]) was 0.620, the “MICb Alone” value (EKO-35-Pore; strain EKO-35 Pore, antibiotic alone) was 0.5 µg/mL and the “MICb Combined” value (EKO-35-Pore; strain EKO-35 Pore, antibiotic in combination with NMP) was 0.06 µg/mL. For the same compound, the Effect (wild-type K-12-Pore; K-12 Pore, NMP + antibiotic) was “Synergistic”, the FICI (wild-type K-12-Pore; K-12 Pore, NMP + antibiotic) was 0.500 and the Effect (wild-type K-12-Pore; K-12 Pore, PAβN + antibiotic) was “Synergistic”. For the same compound, the FICI (wild-type K-12-Pore; K-12 Pore, PAβN + antibiotic) was 0.188, the “MICb Alone” value (wild-type K-12-Pore; K-12 Pore, antibiotic alone (PAβN checkerboard)) was 512 µg/mL and the “MICb Combined” value (wild-type K-12-Pore; K-12 Pore, antibiotic in combination with PAβN) was 32 µg/mL. The Effect (wild-type K-12-Pore; [15]) was “Synergistic (Synergy (FICI ≤0.5))”, the FICI (wild-type K-12-Pore; [15]) was 0.500 and the “MICb Alone” value (wild-type K-12-Pore; strain K-12 Pore, antibiotic alone) was 512 µg/mL.
